Measurements reported in US10336748B2, “Methyoxy-substituted pyrrolopyridine modulators of RORC2 and methods of use thereof” (Pfizer Inc., priority 2015, dated 2019).

What was measured:
[1] = molecular target: T1, RORC2 ligand binding domain (6-His-RORC2 LBD) (Homo sapiens, UniProt P51449); experiment: Co-activator recruitment by TR-FRET; format: biochemical; conditions: 6.3 nM RORC2 LBD, 200 nM SRC1-2 coactivator peptide, 3 hr room temperature
T1 construct: made in house; host or cells: E. coli
T1 sequence (P51449 269-508 limits assumed): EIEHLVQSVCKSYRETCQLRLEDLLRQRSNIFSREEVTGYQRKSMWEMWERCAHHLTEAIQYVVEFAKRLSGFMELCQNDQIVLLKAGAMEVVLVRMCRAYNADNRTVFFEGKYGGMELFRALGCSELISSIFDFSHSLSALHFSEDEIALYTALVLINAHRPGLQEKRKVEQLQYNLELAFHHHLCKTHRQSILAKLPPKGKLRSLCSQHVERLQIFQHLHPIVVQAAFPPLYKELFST
Text: The activity of compound of the invention can be determined by a co-activator recruitment by TR-FRET (time-resolved fluorescence resonance energy transfer) assay. In general, the assay is based on the interaction between N-terminally Six-Histidine-tagged-RORC2 ligand binding domain (6-His-RORC2 LBD), expressed in E. coli and purified by affinity chromatography, and biotin-coactivator peptide SRC1-2 (biotin-aminohexanoic acid-[…]-NH2; SEQ ID NO: 1) containing the LXXLL consensus domain which is responsible for receptor binding. This interaction is detected by addition of Europium labeled-anti-His antibody (Ex. 337 nm, Em. 620 nm, which binds to 6His) and Streptavidin-APC (Ex. 620 nm, Em. 665 nm, which binds to biotin). When receptor and coactivator are bound to each other, upon shining light at 337 nm on the sample, the Europium emits fluorescence that excites APC due to close proximity (FRET) and this signal is measured at 665 nm. Due to the long lasting fluorescence emission of Europium, the non-specific, short-lived fluorescence is time-resolved (TR) from the fluorescence of interest. Inhibitors of the interaction of receptor and coactivator peptide are detected by a decrease in TR-FRET signal.
Specifically, in one embodiment the aforementioned assay was performed as outlined below. The assay was carried out in black polystyrene. 384-well plates in a total assay volume of 50.5 μL. The assay buffer contained 50 mM TRIS-HCL pH 7.5, 1 mM NaCl, 2 mM MgCl2, 0.5 mg/mL bovine serum albumin, and 5 mM dithiothreitol. The final concentration of reagents was 6.3 nM RORC2 LBD, 200 nM SRC1-2, 50 nM streptavidin APC, 1 nM Europium-labeled anti-His antibody, and varying concentrations of compounds such that final concentration of DMSO is 1% (v/v). The assay steps were: (1) dispensing […] compound at 100× final concentration in DMSO (test wells) or DMSO only (control wells for no inhibition); and (2) dispensing 50 μL mixture of the other assay components including receptor (test wells) or excluding receptor (control wells for maximal inhibition).
Assay mixtures were incubated are room temperature for 3 hr and read in EnVision 2100 Multilabel Reader (PerkinElmer Life Sciences) at Excitation Filter 320, Emission Europium Filter 615, Emission APC Filter 665, Dichroic Mirror D400/D630.
TR-FRET signal was determined by calculating the ratio of 665 nm by 615 nm and […] values of compounds of the invention (Table 1) were determined by the non-linear regression analysis of dose response curves.

human Th17 cells = experiment: IL-17 production from human Th17 cells; format: cell-based; conditions: 144 h; IL-17A in supernatant by ELISA (MSD) after 6 days, human CD4+ T cells, anti-CD3 + anti-CD28 + cytokine cocktail
Protocol: The activity of compound of the invention can be also be determined by an IL-17 production from human Th17 cells assay. In general, this assay measures blockade of IL-17 production, the signature cytokine of T helper 17 (Th17) cells, by compounds. Purified human CD4+ T cells are stimulated with anti-CD3+anti-CD28 and incubated with a cytokine cocktail that induce their differentiation into Th17 in the absence or presence of various concentrations of compound. After 6 days, IL-17A concentration is measured in the cell culture supernatant with an ELISA kit (MSD).
Preparation of human CD4+ T cells. CD4+ T cells were purified from buffy coats from healthy donors (obtained from Massachusetts General Hospital) by negative selection the following procedure: Mixing 25 mL of blood with 1 mL of Rosette Sep CD4+ T cell enrichment cocktail (StemCell Technologies) followed by application of a layer of 14 mL Ficoll Paque Plus (Amersham GE Healthcare) and subsequent centrifugation at 1200 g for 20 min at room temperature. The Ficoll layer was then harvested and washed with phosphate saline buffer containing 2% (v/v) fetal bovine serum and cells were resuspended with RPMI medium containing 10% (v/v) fetal bovine serum and 10% (v/v) DMSO, frozen and kept in LN2 until used.
On the first day of the assay, a vial containing 10^7 CD4+ T cells is thawed rapidly in 37° C. water bath, immediately transferred into 20 mL X-Vivo 15 medium (Lonza), is spun for 6 min at 300×g, the supernatant is discarded, and the resulting pellet is re-suspended at 10^6 cells/mL in […] fresh X-Vivo 15 medium, followed by storage overnight in a tissue culture vessel in a humidified chamber at 37° C. and 5% CO2. Serial dilutions of compounds of the invention are prepared at 10× final concentration in X-Vivo15 medium containing 3% (v/v) DMSO.
On the second day of the assay, a 384-well tissue culture plate was coated with 10 μg/mL anti-hCD3 (eBioscience) at 50 μL/well. After 2 hr at 37° C., the supernatant is discarded and the coated plates are kept in a sterile tissue culture hood.
Cytokine plus anti-CD28 cocktail is prepared by mixing 25 ng/mL hIL-6 (Peprotech), 5 ng/mL hTGFbeta1 (Peprotech), 12.5 ng/mL IL-1beta (Peprotech), 25 ng/mL hIL-21, 25 ng/mL hIL-23 (R&D Systems), and 1 ug/mL anti-hCD28 (eBioscience) in X-Vivo 15 medium. The cytokine plus anti-CD28 cocktail with CD4+ cells is prepared such that the cocktail is diluted 10-fold and cell density is 0.22×10^6/mL. The mixture is incubated 1 hr at 37° C.
90 μL (20,000 cells) dispensed per well in the anti-hCD3 coated plate prepared as noted above.
10 μL 10× compound is added per well (final DMSO=0.3%) from the compound plate that was previously prepared, followed by 6 days of incubation in a tissue culture vessel in a humidified chamber at 37° C. and 5% CO2.
On day six of the assay, production of IL-17A in 10 μL of the supernatant is determined by sandwich ELISA using 384w hIL17 MSD plates following the manufacturer's protocol. Measurement is carried out in a Sector Imager 6000 by the same manufacturer. Signal units from the instrument are converted to pg/mL using a calibration curve with known amounts of IL-17A. IC50 values of test compounds (Table 2) are determined by the non-linear regression analysis of dose response curves.

| SMILES | IC50 [1] [nM] | IC50 (human Th17 cells) [nM] |
| --- | --- | --- |
| COc1ccc(C(=O)Nc2cnc3c(c(C4CCN(C(=O)C(C)C)CC4)cn3C)c2OC)cc1C#N [Example 2, 3-cyano-N-(3-(1-isobutyrylpiperidin-4-yl)-4-methoxy-1-methyl-1H-pyrrolo[2,3-b]pyridin-5-yl)-4-methoxybenzamide] | 38.7 | 17.8 |
| COc1ccc(C(=O)Nc2cnc3c(c(C4CCN(C(=O)[C@@H](C)C(C)(C)C)CC4)cn3C)c2OC)cc1C#N [Example 3, (S)-3-cyano-4-methoxy-N-(4-methoxy-1-methyl-3-(1-(2,3,3-trimethylbutanoyl)piperidin-4-yl)-1H-pyrrolo[2,3-b]pyridin-5-yl)benzamide] | 4.6 | 6.4 |
| COc1ccc(C(=O)Nc2cnc3c(c(C4CCN(C(=O)[C@H](C)C(C)(C)C)CC4)cn3C)c2OC)cc1C#N [Example 4, (R)-3-cyano-4-methoxy-N-(4-methoxy-1-methyl-3-(1-(2,3,3-trimethylbutanoyl)piperidin-4-yl)-1H-pyrrolo[2,3-b]pyridin-5-yl)benzamide] | 6.9 | 11 |
| COc1c(NC(=O)c2cccc(C#N)c2)cnc2c1c(C1CCN(C(=O)[C@H](C)C(C)(C)C)CC1)cn2C [Example 5, (R)-3-cyano-N-(4-methoxy-1-methyl-3-(1-(2,3,3-trimethylbutanoyl)piperidin-4-yl)-1H-pyrrolo[2,3-b]pyridin-5-yl)benzamide] | 6.1 | 10.6 |
| COc1c(NC(=O)c2cccc(C#N)c2)cnc2c1c(C1CCN(C(=O)[C@H](C)C(C)C)CC1)cn2C [Example 6, (R)-3-cyano-N-(3-(1-(2,3-dimethylbutanoyl)piperidin-4-yl)-4-methoxy-1-methyl-1H-pyrrolo[2,3-b]pyridin-5-yl)benzamide] | 15.2 | 15.7 |
| COc1c(NC(=O)c2cccc(C#N)c2)cnc2c1c(C1CCN(C(=O)c3cccc4c3CCC4)CC1)cn2C [Example 7, 3-cyano-N-(3-(1-(2,3-dihydro-1H-indene-4-carbonyl)piperidin-4-yl)-4-methoxy-1-methyl-1H-pyrrolo[2,3-b]pyridin-5-yl)benzamide] | 4.7 | 28.3 |
| COc1c(NC(=O)c2cccc(C#N)c2)cnc2c1c(C1CCN(C(=O)C3CCCC3)CC1)cn2C [Example 8, 3-cyano-N-(3-(1-(cyclopentanecarbonyl)piperidin-4-yl)-4-methoxy-1-methyl-1H-pyrrolo[2,3-b]pyridin-5-yl)benzamide] | 11.8 | 29.8 |
| COc1cc(C#N)cc(C(=O)Nc2cnc3c(c(C4CCN(C(=O)C[C@@H](O)C(F)(F)F)CC4)cn3C)c2OC)c1 [Example 9, (R)-3-cyano-5-methoxy-N-(4-methoxy-1-methyl-3-(1-(4,4,4-trifluoro-3-hydroxybutanoyl)piperidin-4-yl)-1H-pyrrolo[2,3-b]pyridin-5-yl)benzamide] | 56.2 | 77.1 |
| COc1c(NC(=O)c2ccc(F)c(C#N)c2)cnc2c1c(C1CCN(C(=O)C3CCCC3)CC1)cn2C [Example 10, 3-cyano-N-(3-(1-(cyclopentanecarbonyl)piperidin-4-yl)-4-methoxy-1-methyl-1H-pyrrolo[2,3-b]pyridin-5-yl)-4-fluorobenzamide] | 29.2 | 106 |
| COc1c(NC(=O)c2ccc(C)c(C#N)c2)cnc2c1c(C1CCN(C(=O)C3CCCC3)CC1)cn2C [Example 11, 3-cyano-N-(3-(1-(cyclopentanecarbonyl)piperidin-4-yl)-4-methoxy-1-methyl-1H-pyrrolo[2,3-b]pyridin-5-yl)-4-methylbenzamide] | 17.8 | 50.7 |
| COc1cc(C#N)cc(C(=O)Nc2cnc3c(c(C4CCN(C(=O)C5CCCC5)CC4)cn3C)c2OC)c1 [Example 12, 3-cyano-N-(3-(1-(cyclopentanecarbonyl)piperidin-4-yl)-4-methoxy-1-methyl-1H-pyrrolo[2,3-b]pyridin-5-yl)-5-methoxybenzamide] | 20.2 | 59.8 |
| COc1ccc(C(=O)Nc2cnc3c(c(C4CCN(C(=O)C5CCCCC5)CC4)cn3C)c2OC)cc1C#N [Example 13, 3-cyano-N-(3-(1-(cyclohexanecarbonyl)piperidin-4-yl)-4-methoxy-1-methyl-1H-pyrrolo[2,3-b]pyridin-5-yl)-4-methoxybenzamide] | 15.4 | 9.5 |
| COc1c(NC(=O)c2cccc(C#N)c2)cnc2c1c(C1CCN(C(=O)[C@@H](C)C(C)C)CC1)cn2C [Example 14, (S)-3-cyano-N-(3-(1-(2,3-dimethylbutanoyl)piperidin-4-yl)-4-methoxy-1-methyl-1H-pyrrolo[2,3-b]pyridin-5-yl)benzamide] | 14.2 | 42.1 |
| COc1c(NC(=O)c2cccc(C#N)c2)cnc2c1c([C@@H]1[C@@H]3CC[C@H]1CN(C(=O)[C@H](C)C(C)(C)C)C3)cn2C [Example 21, 3-cyano-N-(4-methoxy-1-methyl-3-((1R,5S,8R)-3-((R)-2,3,3-trimethylbutanoyl)-3-azabicyclo[3.2.1]octan-8-yl)-1H-pyrrolo[2,3-b]pyridin-5-yl)benzamide] |  | 21.3 |
| COc1ccc(C(=O)Nc2cnc3c(c([C@@H]4[C@@H]5CC[C@H]4CN(C(=O)C4CCCC4)C5)cn3C)c2OC)cc1C#N [Example 22, 3-cyano-N-(3-((1R,5S,8r)-3-(cyclopentanecarbonyl)-3-azabicyclo[3.2.1]octan-8-yl)-4-methoxy-1-methyl-1H-pyrrolo[2,3-b]pyridin-5-yl)-4-methoxybenzamide] |  | 22.7 |
